How the values were obtained:
PSG G322A G335A (PSD-95) = experiment: FP saturation binding of FITC-15 AA CRIPT probe; conditions: read-out: Kd probe, 5 nM FITC-15 AA CRIPT, room temperature
PSG (PSD-95) = experiment: FP saturation binding of FITC-15 AA CRIPT probe; conditions: read-out: Kd probe, 5 nM FITC-15 AA CRIPT, room temperature, PSG WT

Kd (PSG G322A G335A (PSD-95)): 160 ± 20 nM | Kd (PSG (PSD-95)): 2200 ± 220 nM
SMILES: CC(C)C[C@H](NC(=O)[C@@H](NC(=O)[C@H](CCCCN)NC(=O)[C@H](CCCCN)NC(=O)[C@H](Cc1ccc(O)cc1)NC(=S)Nc1ccc2c(c1)C(=O)OC21c2ccc(O)cc2Oc2cc(O)ccc21)C(C)C)C(=O)N[C@@H](CC(=O)O)C(=O)N[C@H](C(=O)N[C@@H](CCCCN)C(=O)N[C@@H](CC(N)=O)C(=O)N[C@@H](Cc1ccc(O)cc1)C(=O)N[C@@H](CCCCN)C(=O)N[C@@H](CCC(N)=O)C(=O)N[C@H](C(=O)N[C@@H](CO)C(=O)N[C@H](C(=O)O)C(C)C)[C@@H](C)O)[C@@H](C)O [FITC-15 AA CRIPT]

Source: paper PMC9490041, “Determinants of affinity, specificity, and phase separation in a supramodule from Post-synaptic density protein 95” (iScience, 2022)
